Experimental data: patent US20080292616A1, “Topical Formulations of Histone Deacetylase Inhibitors and Methods Using the Same” (Government of the United of America, Represented by the …, priority 2005, published 2008)

Key:
[1] = system: New Zealand white rabbits; experiment: Topical toxicity study in rabbits, 4 hours daily application (Example 1); conditions: 2.5 mg/kg topically for 14 days
Method: A study uses New Zealand white rabbits to determine topical toxicity of the depsipeptide FR901228 when applied topically in either Cetaphil° lotion (CL) or Aquaphor cream (AC).
The dose of depsipeptide is 2.5 mg/kg/day (30 mg/m2/d); controls receive vehicle (Aquaphor or Cetaphil) in place of depsipeptide. A highly intense dosing regimen is employed to study toxicity. The study is designed for application of the respective topical composition to the rabbits for 4 hours daily for 28 days. The four-hour application is accomplished by removing the applied composition approximately four hours after application. Four groups of rabbits (2 rabbits/sex/group) are used with two control and two experimental groups. The control groups receive carrier alone (CL or AC) and the experimental groups receive FR901228 in the respective carriers. The experimental parameters include weekly testing of clinical pathology and plasma drug levels. Histopathology is performed at days 15 and 28.

rabbits = experiment: Topical tolerability study in rabbits, three times weekly for 4 weeks (Example 2); type: in vivo, rabbit
Method: The dose used is again 2.5/mg/kg/d (30 mg/m2/d) FR901228 or vehicle in AC, but is applied topically, 4 hrs. a day, for 4 weeks, three times weekly. The study parameters include weekly clinical pathology and histopathology takes place at days 27 and 41. The compositions are applied to substantially all of the rabbit's back. In the case of a human patient or other diseased subject, the composition can be applied to disease-affected and/or non-affected surface areas.

[2] = intravenous infusion over 4 hours on days 1 and 5 of a 21-day cycle; cited from earlier work
[3] = FR901228 in AC, 2.5 mg/kg/d topical, 4 hrs a day, 4 weeks

In the case of `C/C=C1\NC(=O)[C@H]2CSSCC/C=C/[C@H](CC(=O)N[C@H](C(C)C)C(=O)N2)OC(=O)[C@H](C(C)C)NC1=O` [FR901228, (E)-(1S, 4S, 10S, 21R)-7-[(Z)-ethylidene]-4,21-diisopropyl-2-oxa-12,13-dithia-5,8,20,23-tetraazabicyclo [8,7,6]-tricos-16-ene-3,6,19,22-pentanone], the “skin toxicity at the application site (conclusion)” value [1] is reported as “significant skin toxicity at the application site”, the Draize scoring (rabbits; [3]) is reported as “slight to well-defined” and the “onset of red skin at the application site” value (rabbits; [3]) is reported as 9 days. The “pathology: microscopic lesions at the application site” value (rabbits; day 27, FR901228 in AC) was “ulcers of minimal severity”, the “increased FBN” value (rabbits; days 4, 11, and 27, FR901228 in AC) was 1.6-2 × and the maximum tolerated dose [2] was 17.8 mg/m2.
